Tests used:
[1] = system: caterpillars of the army worm (Spodoptera frugiperda); test: Spodoptera frugiperda test (SPODFR spray treatment); format: in vivo; conditions: Example I; 4 ppm active compound; sprayed maize leaf discs
Method: Spodoptera frugiperda Test (SPODFR Spray Treatment)
• Solvents: 78.0 parts by weight of acetone • 1.5 parts by weight of dimethylformamide • Emulsifier: 0.5 part by weight of alkylaryl polyglyycol ether
After the desired period of time, the effect in % is determined. 100% means that all caterpillars have been killed; 0% means that none of the caterpillars have been killed.

[2] = system: larvae of the mustard beetle (Phaedon cochleariae); test: Phaedon test (PHAECO spray treatment); format: in vivo; conditions: Example G; 4 ppm active compound; sprayed Chinese cabbage discs
Method: Phaedon Test (PHAECO Spray Treatment)
• Solvents: 78 parts by weight of acetone • 1.5 parts by weight of dimethylformamide • Emulsifier: 0.5 part by weight of alkylaryl polyglyycol ether
After the desired period of time, the effect in % is determined. 100% means that all beetle larvae have been killed; 0% means that none of the beetle larvae have been killed.

| SMILES | Kill rate in % after 5 days [1] [%] | Kill rate in % after 7 days [2] [%] |
| --- | --- | --- |
| CC[C@H](C)[C@H]1O[C@]2(C=C[C@@H]1C)C[C@@H]1C[C@@H](C/C=C(\C)[C@@H](O[C@H]3C[C@H](OC)[C@@H](OC(=O)c4ccc(Cl)cc4)[C@H](C)O3)[C@@H](C)/C=C/C=C3\CO[C@@H]4[C@H](O)C(C)=C[C@@H](C(=O)O1)[C@]34O)O2 [4′-O-(4-chlorobenzoyl)-4′-O-de(2,6-dideoxy-3-O-methyl-α-L-arabino-hexopyranosyl)-5-O-demethyl-avermectin A1a, reference compound] | 0 |  |
| CCCC(=O)OC1C(C)OC(O[C@@H]2/C(C)=C/C[C@@H]3C[C@@H](CC4(C=C[C@H](C)[C@@H]([C@@H](C)CC)O4)O3)OC(=O)C3C=C(C)[C@@H](O)[C@H]4OC/C(=C\C=C\[C@@H]2C)[C@@]34O)CC1OC (some centres unmarked) [Example 28] | 100 | 100 |
| CCCCC(=O)OC1C(C)OC(O[C@@H]2/C(C)=C/C[C@@H]3C[C@@H](CC4(C=C[C@H](C)[C@@H]([C@@H](C)CC)O4)O3)OC(=O)C3C=C(C)[C@@H](O)[C@H]4OC/C(=C\C=C\[C@@H]2C)[C@@]34O)CC1OC (some centres unmarked) [Example 29] | 100 | 100 |
| CC[C@H](C)[C@H]1OC2(C=C[C@@H]1C)C[C@@H]1C[C@@H](C/C=C(\C)[C@@H](OC3CC(OC)C(OC(=O)COC)C(C)O3)[C@@H](C)/C=C/C=C3\CO[C@@H]4[C@H](O)C(C)=CC(C(=O)O1)[C@]34O)O2 (some centres unmarked) [Example 30] | 100 |  |
| CC[C@H](C)[C@H]1OC2(C=C[C@@H]1C)C[C@@H]1C[C@@H](C/C=C(\C)[C@@H](OC3CC(OC)C(OC(=O)Cn4cncn4)C(C)O3)[C@@H](C)/C=C/C=C3\CO[C@@H]4[C@H](O)C(C)=CC(C(=O)O1)[C@]34O)O2 (some centres unmarked) [Example 32] | 100 | 100 |
| CC[C@H](C)[C@H]1OC2(C=C[C@@H]1C)C[C@@H]1C[C@@H](C/C=C(\C)[C@@H](OC3CC(OC)C(OC(=O)Cc4cccnc4)C(C)O3)[C@@H](C)/C=C/C=C3\CO[C@@H]4[C@H](O)C(C)=CC(C(=O)O1)[C@]34O)O2 (some centres unmarked) [Example 33] | 100 | 100 |
| CC[C@H](C)[C@H]1OC2(C=C[C@@H]1C)C[C@@H]1C[C@@H](C/C=C(\C)[C@@H](OC3CC(OC)C(OC(=O)C4CCC(=O)N4)C(C)O3)[C@@H](C)/C=C/C=C3\CO[C@@H]4[C@H](O)C(C)=CC(C(=O)O1)[C@]34O)O2 (some centres unmarked) [Example 38] | 100 |  |
| CC[C@H](C)[C@H]1OC2(C=C[C@@H]1C)C[C@@H]1C[C@@H](C/C=C(\C)[C@@H](OC3CC(OC)C(OC(=O)COc4ccc(Cl)cc4)C(C)O3)[C@@H](C)/C=C/C=C3\CO[C@@H]4[C@H](O)C(C)=CC(C(=O)O1)[C@]34O)O2 (some centres unmarked) [Example 39] | 100 |  |
| CC[C@H](C)[C@H]1OC2(C=C[C@@H]1C)C[C@@H]1C[C@@H](C/C=C(\C)[C@@H](OC3CC(OC)C(OC(=O)Cc4csc(-c5ccncc5)n4)C(C)O3)[C@@H](C)/C=C/C=C3\CO[C@@H]4[C@H](O)C(C)=CC(C(=O)O1)[C@]34O)O2 (some centres unmarked) [Example 46] | 100 |  |
| CC[C@H](C)[C@H]1OC2(C=C[C@@H]1C)C[C@@H]1C[C@@H](C/C=C(\C)[C@@H](OC3CC(OC)C(OC(=O)Cc4nc(C)sc4C)C(C)O3)[C@@H](C)/C=C/C=C3\CO[C@@H]4[C@H](O)C(C)=CC(C(=O)O1)[C@]34O)O2 (some centres unmarked) [Example 47] | 100 |  |
| CC[C@H](C)[C@H]1OC2(C=C[C@@H]1C)C[C@@H]1C[C@@H](C/C=C(\C)[C@@H](OC3CC(OC)C(OC(=O)Cn4ccnc4)C(C)O3)[C@@H](C)/C=C/C=C3\CO[C@@H]4[C@H](O)C(C)=CC(C(=O)O1)[C@]34O)O2 (some centres unmarked) [Example 49] | 100 |  |
| CC[C@H](C)[C@H]1OC2(C=C[C@@H]1C)C[C@@H]1C[C@@H](C/C=C(\C)[C@@H](OC3CC(OC)C(OC(=O)C(C)n4ccnn4)C(C)O3)[C@@H](C)/C=C/C=C3\CO[C@@H]4[C@H](O)C(C)=CC(C(=O)O1)[C@]34O)O2 (some centres unmarked) [Example 61] |  | 100 |
| CC[C@H](C)[C@H]1OC2(C=C[C@@H]1C)C[C@@H]1C[C@@H](C/C=C(\C)[C@@H](OC3CC(OC)C(OC(=O)C(C)n4cccn4)C(C)O3)[C@@H](C)/C=C/C=C3\CO[C@@H]4[C@H](O)C(C)=CC(C(=O)O1)[C@]34O)O2 (some centres unmarked) [Example 62] |  | 100 |
| CC[C@H](C)[C@H]1OC2(C=C[C@@H]1C)C[C@@H]1C[C@@H](C/C=C(\C)[C@@H](OC3CC(OC)C(OC(=O)Cn4nc(C)n(C)c4=O)C(C)O3)[C@@H](C)/C=C/C=C3\CO[C@@H]4[C@H](O)C(C)=CC(C(=O)O1)[C@]34O)O2 (some centres unmarked) [Example 63] |  | 100 |
| CC[C@H](C)[C@H]1OC2(C=C[C@@H]1C)C[C@@H]1C[C@@H](C/C=C(\C)[C@@H](OC3CC(OC)C(OC(=O)Cn4nc(OC)n(C)c4=O)C(C)O3)[C@@H](C)/C=C/C=C3\CO[C@@H]4[C@H](O)C(C)=CC(C(=O)O1)[C@]34O)O2 (some centres unmarked) [Example 64] |  | 100 |
| CC[C@H](C)[C@H]1OC2(C=C[C@@H]1C)C[C@@H]1C[C@@H](C/C=C(\C)[C@@H](OC3CC(OC)C(OC(=O)Cc4ccccn4)C(C)O3)[C@@H](C)/C=C/C=C3\CO[C@@H]4[C@H](O)C(C)=CC(C(=O)O1)[C@]34O)O2 (some centres unmarked) [Example 65] |  | 100 |
| CC[C@H](C)[C@H]1OC2(C=C[C@@H]1C)C[C@@H]1C[C@@H](C/C=C(\C)[C@@H](OC3CC(OC)C(OC(=O)CN4CCOCC4)C(C)O3)[C@@H](C)/C=C/C=C3\CO[C@@H]4[C@H](O)C(C)=CC(C(=O)O1)[C@]34O)O2 (some centres unmarked) [Example 79] |  | 100 |
| CC[C@H](C)[C@H]1OC2(C=C[C@@H]1C)C[C@@H]1C[C@@H](C/C=C(\C)[C@@H](OC3CC(OC)C(OC(=O)CCn4ccnc4)C(C)O3)[C@@H](C)/C=C/C=C3\CO[C@@H]4[C@H](O)C(C)=CC(C(=O)O1)[C@]34O)O2 (some centres unmarked) [Example 86] | 100 |  |
| CC[C@H](C)[C@H]1OC2(C=C[C@@H]1C)C[C@@H]1C[C@@H](C/C=C(\C)[C@@H](OC3CC(OC)C(OC(=O)c4ccc(OC(F)(F)F)cc4)C(C)O3)[C@@H](C)/C=C/C=C3\CO[C@@H]4[C@H](O)C(C)=CC(C(=O)O1)[C@]34O)O2 (some centres unmarked) [Example 97] | 33 |  |
| CC[C@H](C)[C@H]1OC2(C=C[C@@H]1C)C[C@@H]1C[C@@H](C/C=C(\C)[C@@H](OC3CC(OC)C(OC(=O)c4ccc(F)cc4)C(C)O3)[C@@H](C)/C=C/C=C3\CO[C@@H]4[C@H](O)C(C)=CC(C(=O)O1)[C@]34O)O2 (some centres unmarked) [Example 99] | 100 |  |
| CC[C@H](C)[C@H]1OC2(C=C[C@@H]1C)C[C@@H]1C[C@@H](C/C=C(\C)[C@@H](OC3CC(OC)C(OC(=O)CN4CCNCC4)C(C)O3)[C@@H](C)/C=C/C=C3\CO[C@@H]4[C@H](O)C(C)=CC(C(=O)O1)[C@]34O)O2 (some centres unmarked) [Example 101, 4′-O-(piperazin-1-ylacetyl)-avermectin B1 monosaccharide] |  | 100 |
| CC[C@H](C)[C@H]1OC2(C=C[C@@H]1C)C[C@@H]1C[C@@H](C/C=C(\C)[C@@H](OC3CC(OC)C(OC(=O)CNC)C(C)O3)[C@@H](C)/C=C/C=C3\CO[C@@H]4[C@H](O)C(C)=CC(C(=O)O1)[C@]34O)O2 (some centres unmarked) [Example 104] |  | 100 |

Source: patent US8183351B2, “Avermectin derivatives” (Bayer Cropscience AG, priority 2006, dated 2012)
